# Experimental data: patent US9399649B2, “Compounds for treating spinal muscular atrophy” (PTC Therapeutics Inc., priority 2012, dated 2016)
# Legend:
# [1] = tested on: human SMN1 minigene full length and Δ7 mRNA; assay: Human SMN1 minigene mRNA end-point semi-quantitative RT-PCR splicing assay in cultured cells; format: cell-based; settings: HEK293H cells transfected with SMN1-A minigene, increasing concentrations, 7 hours, FIG. 17
# From the text: The RT-PCR assay is used to visualize and quantify the levels of the human SMN1 minigene full length and Δ7 mRNA in primary cells and cell lines expressing the human SMN1 minigene construct treated with a test compound.
# Using the procedure for the preparation of the SMN2 minigene construct described in Biological Example 1, the SMN1 version of the minigene is generated by changing the sixth nucleotide of exon 7 (a thymine residue) of the SMN2-A minigene construct to cytosine using site directed mutagenesis. Thus, similar to the SMN2-A minigene construct, the SMN1 minigene construct has a single adenine residue inserted after nucleic residue 48 of exon 7. The SMN1 minigene construct is referred to as SMN1-A.
# HEK293H cells (10,000 cells/well/199 μL) were transfected, using FuGENE-6 reagent, in a 96-well plate with 15 ng of the SMN1-A minigene reporter plasmid per well. Cells were incubated for 24 hours following transfection. Test compounds were serially diluted 3.16-fold in 100% DMSO to generate a 7-point concentration curve. A solution of test compound (1 μL, 200× in DMSO) was added to each test well. 1 μL DMSO was added to each control well. The plate was incubated for 7 hours in a cell culture incubator (37° C., 5% CO2, 100% relative humidity). The cells were then lysed in Cells-To-Ct lysis buffer and the lysates were stored at 80° C.
# Two SMN spliced mRNA are generated from the SMN1 minigene. The term “SMN1 minigene FL” refers to the first spliced product containing exon 7, corresponding to full length SMN1 mRNA. The term “SMN1 minigene A7” refers to the second product lacking exon 7.
# SMN minigene FL and Δ7 mRNA are amplified using the primers in Table 11. Primer SMN Forward C (SEQ ID NO. 11) hybridizes to a nucleotide sequence in exon 6 (nucleotide 43 to nucleotide 63), primer SMN Reverse A (SEQ ID NO. 2) hybridizes to a nucleotide sequence in the coding sequence of Firefly luciferase. The combination of these two oligonucleotides detects only SMN1 or SMN2 minigenes (RT-PCR) and will not detect endogenous SMN1 or SMN2 genes. Since the SMA patient cells used in Example 16 were transfected with only the human SMN1 minigene, RT-PCR can visualize and quantify only SMN1 minigene full-length and SMN1 minigene Δ7 mRNA.
# To synthesize cDNA, 5 μL of lysate, 4 μL of 5× iScript reaction mix, 1 μL of reverse transcriptase, and 10 μL of water are combined and incubated 5 min at 25° C. followed by 30 min at 42° C., followed by 5 min at 85° C. The cDNA solution is stored at −20° C.
# To perform endpoint PCR, 5 μL of cDNA, 0.2 μL of 100 μM forward primer, 0.2 μL of 100 μM reverse primer, and 22.5 μL of polymerase super mix are combined in a 96 well semiskirted PCR plate. PCR is carried out at the following temperatures for the indicated time: Step 1: 94° C. (2 min), Step 2: 94° C. […]
# Smn protein = Smn protein assay in cultured cells (SMN HTRF); format: cell-based, human; settings: for Smn protein expression: SMA Type 1 patient fibroblast cells, 48 hour, SMN HTRF assay, FIG. 8; for EC1.5x for Smn protein expression / maximum fold (Fold) increase of Smn protein: SMA patient fibroblast cells (GM03813), 48 hours; for EC1.5x for Smn protein expression: 7-point concentration curve, concentration producing 1.5 times Smn protein vs DMSO vehicle; for maximum fold (Fold) increase of Smn protein: 7-point concentration data, relative to vehicle control
# Outline: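 Smn protein measured by HTRF (anti-SMN d2/kryptate) in lysates of SMA patient fibroblasts after 48 h compound treatment, 7-point 3.16-fold dilutions, triplicates. The 665/620 nm ratio is blank-corrected to ΔF, then divided by the vehicle ΔF to give fold increase.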
# [2] = tested on: SMA Δ7 homozygous knockout mice; assay: Righting reflex in neonatal Δ7 SMA mice; format: in vivo; settings: IP QD from PND 3, measured PND 10, 14 and 18, FIG. 14
# Procedure: The functional change in righting reflex of neonatal SMA mice is used to determine whether treatment with a test compound improves righting reflex.
# SMA Δ7 homozygous knockout mice are dosed intraperitoneally (IP) with test compound or vehicle (100% DMSO) QD from PND 3 until the dose regimen is switched to an oral dose BID in 0.5% hydroxypropylmethyl cellulose (HPMC) with 0.1% Tween-80 at a dose 3.16-fold higher than the dose used for IP. The righting reflex time is measured as the time taken by a mouse to flip over onto its feet after being laid on its back. Righting reflex is measured five times for each mouse (allowing a maximal time of 30 sec for each try) with 5 minutes between each measurement. The righting reflex time for SMA Δ7 homozygous knockout mice treated with test compound or vehicle and age-matched heterozygous mice is measured on PND 10, 14 and 18 and plotted.
SMILES,SMN1 minigene FL mRNA (gel band) [1],SMN1 minigene Δ7 mRNA (gel band) [1],Smn protein expression (Smn protein),EC1.5x for Smn protein expression (Smn protein),maximum fold (Fold) increase of Smn protein (Smn protein),righting reflex [2]
"Cc1cn2cc(-c3cc4ccc(N5CCN6CCC[C@H]6C5)cc4c(=O)o3)nc2c(C)n1 [Cpd 69, 3-(6,8-dimethylimidazo[1,2-a]pyrazin-2-yl)-7-[(8aS)-hexahydropyrrolo[1,2-a]pyrazin-2(1H)-yl]-1H-isochromen-1-one]",progressively more SMN1 minigene FL mRNA,less SMN1 minigene Δ7 mRNA,dose dependent increase in Smn protein expression,**** (an EC1.5×≦0.3 nM is indicated by four stars (****)),***** (a fold increase >1.65 is indicated by five stars (*****)),improved compared to vehicle treated mice
"Cc1cn2cc(-c3cc4ccc(N5CCN(C)CC5)cc4c(=O)o3)nc2c(C)n1 [Cpd 65, 3-(6,8-dimethylimidazo[1,2-a]pyrazin-2-yl)-7-(4-methylpiperazin-1-yl)-1H-isochromen-1-one]",progressively more SMN1 minigene FL mRNA,less SMN1 minigene Δ7 mRNA,dose dependent increase in Smn protein expression,**** (an EC1.5×≦0.3 nM is indicated by four stars (****)),***** (a fold increase >1.65 is indicated by five stars (*****)),improved compared to vehicle treated mice
